The text below walks through data of US8362000B2, “Azetidinyl diamides as monoacylglycerol lipase inhibitors” (Janssen Pharmaceutica NV, priority 2009, dated 2013).

One assay concerns the target T1, mutant MGL (Homo sapiens, UniProt Q99685, L169S/L176S).
T1 sequence (Q99685 1-303 L169S/L176S): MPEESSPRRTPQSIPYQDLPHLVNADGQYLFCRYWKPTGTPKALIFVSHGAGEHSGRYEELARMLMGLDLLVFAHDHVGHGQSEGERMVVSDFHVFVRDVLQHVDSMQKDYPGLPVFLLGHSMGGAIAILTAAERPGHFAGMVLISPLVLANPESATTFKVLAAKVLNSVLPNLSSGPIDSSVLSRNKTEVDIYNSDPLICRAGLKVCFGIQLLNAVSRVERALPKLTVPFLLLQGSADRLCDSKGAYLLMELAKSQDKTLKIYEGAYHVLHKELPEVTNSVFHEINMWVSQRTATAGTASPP
Put plainly: MGL ThermoFluor assay - mutant. Type of assay: binding. Particulars: ThermoFluor concentration-response, read-out: MGL mutant ThermoFluor Kd. On the technique in general: In DSF a fluorescence change marks the thermal transition of the protein.

Assay [1] has as its target T2, purified wild type MGL (wt-MGLL 6H-11-313) (Homo sapiens, UniProt Q99685).
T2 sequence (Q99685 1-303): T1 sequence (Q99685 1-303 L169S/L176S) with S169L, S176L

In the next assay the target is T3, MGL (Rattus norvegicus, UniProt Q8R431).
T3 construct: one g rat brain was homogenized using a Polytron homogenizer; from tissue; host or cells: rat brain homogenate
T3 sequence (Q8R431 1-303): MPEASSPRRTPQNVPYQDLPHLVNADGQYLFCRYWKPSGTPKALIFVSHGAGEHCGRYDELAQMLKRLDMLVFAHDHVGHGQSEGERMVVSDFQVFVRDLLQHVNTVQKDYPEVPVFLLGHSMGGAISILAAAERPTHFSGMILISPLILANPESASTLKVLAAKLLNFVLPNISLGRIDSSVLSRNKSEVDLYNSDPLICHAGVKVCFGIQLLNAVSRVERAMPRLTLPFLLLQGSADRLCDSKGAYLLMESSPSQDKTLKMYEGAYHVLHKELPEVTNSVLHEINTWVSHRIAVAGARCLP
Put plainly: 2-AG accumulation assay in rat brain homogenate. It is filed as biochemical. The following applies: rat brain homogenate, 2-AG accumulation as percent of vehicle; for 2-AG accumulation, % of vehicle control at 1 µM: compound 1 μM, read-out: Rat Brain 2AG % VehCntrl (%) @ 1 μM; for 2-AG accumulation, % of vehicle control at 10 µM: compound 10 μM, read-out: Rat Brain 2AG % VehCntrl (%) @ 10 μM.

The structures appear in SMILES notation. Positions count from the first letter of the chain named.

For the compound `O=C(c1ccc(N2CCCC2)cc1)N1CC(N2CCN(C(=O)c3nccs3)CC2)C1` [Cpd 669], the Kd (as a rule, a measure of binding affinity in units of concentration) at mutant MGL was found to be 5 nM. In assay [1], the IC50 (usually the concentration at which inhibition is half-maximal) amounted to 15 nM. Besides, the 2-AG accumulation, % of vehicle control at 1 µM at MGL came to 583%.

In assay [1], `O=C(c1ccccc1)N1CCN(C2CN(C(=O)c3ccc(-c4ccccc4C(F)(F)F)cc3)C2)CC1` [Cpd 72, 1-(Phenylcarbonyl)-4-(1-{[2′-(trifluoromethyl)biphenyl-4-yl]carbonyl}azetidin-3-yl)piperazine] had an IC50 of 326 nM. Moreover, the 2-AG accumulation, % of vehicle control at 10 µM on MGL is 334%.

With `O=C(c1ccc(-c2ccc(C(F)(F)F)s2)cc1)N1CCN(C2CN(C(=O)c3cscn3)C2)CC1` [Cpd 1136], in assay [1], the midpoint of inhibition, the IC50, lay at 25 nM. In addition, the 2-AG accumulation, % of vehicle control at 1 µM on MGL was found to be 325%.

Consider `O=C(c1ccc(-c2ccc(Cl)c(Cl)c2)cc1)N1CC(N2CCN(C(=O)c3nccs3)CC2)C1` [Cpd 175, 1-{1-[(3′,4′-Dichlorobiphenyl-4-yl)carbonyl]azetidin-3-yl}-4-(1,3-thiazol-2-ylcarbonyl)piperazine], for which the IC50 in assay [1] was below 5 nM. On MGL (compound 0.1 μM, read-out: Rat Brain 2AG % VehCntrl (%) @ 0.1 μM), the 2-AG accumulation, % of vehicle control at 0.1 µM worked out at 330%. Moreover, the 2-AG accumulation, % of vehicle control at 1 µM on MGL was 706%.

As for `O=C(c1nccs1)N1CC(N2CCN(C(=O)c3ccc(-c4ccccc4)cc3)C(c3ccccc3)C2)C1` (stereo not shown) [Cpd 43, 1-(Biphenyl-4-ylcarbonyl)-2-phenyl-4-[1-(1,3-thiazol-2-ylcarbonyl)azetidin-3-yl]piperazine], the IC50 in assay [1] was determined as 1260 nM. Also, the 2-AG accumulation, % of vehicle control at 10 µM at MGL turned out to be 215%.

For `Cc1nc(-c2ccccc2)sc1C(=O)N1CC(N2CCN(C(=O)c3nccs3)CC2)C1` [Cpd 133, 1-{1-[(4-Methyl-2-phenyl-1,3-thiazol-5-yl)-carbonyl]azetidin-3-3yl}-4-(1,3-thiazol-2-ylcarbonyl)piperazine], in assay [1], the IC50 stood at 67.3 nM. Besides, the 2-AG accumulation, % of vehicle control at 10 µM at MGL amounted to 623%.

In turn, `O=C(c1ccc2c(-c3ccccc3)ncnc2c1)N1CC(N2CCN(C(=O)c3nccs3)CC2)C1` [Cpd 1130] yielded an IC50 in assay [1] of 22 nM. Moreover, the 2-AG accumulation, % of vehicle control at 1 µM at MGL was determined as 553%.

`O=C(c1ccccc1)N1CCN(C2CN(C(=O)c3ccc(-c4ccccc4OC(F)(F)F)cc3)C2)CC1` [Cpd 196, 1-(Phenylcarbonyl)-4-(1-{[2′-(trifluoromethoxy)biphenyl-4-yl]carbonyl}azetidin-3-yl)piperazine] displayed an IC50 in assay [1] of 216 nM. Moreover, the 2-AG accumulation, % of vehicle control at 10 µM at MGL came out at 516%.

Take `O=C(c1ccc2c(c1)CCCN2C(=O)C1CCC1)N1CC(N2CCN(C(=O)c3nccs3)CC2)C1` [Cpd 364]: inhibition in assay [1] was half-maximal at 210 nM (IC50). Also, on MGL, the 2-AG accumulation, % of vehicle control at 1 µM was 581%.

On to `O=C(c1cccc(C(F)(F)F)c1)N1CCc2cc(C(=O)N3CC(N4CCN(C(=O)c5nccs5)CC4)C3)ccc2C1` [Cpd 679, 6-({3-[4-(1,3-Thiazol-2-ylcarbonyl)piperazin-1-yl]azetidin-1-yl}carbonyl)-2-{[3-(trifluoromethyl)phenyl]carbonyl}-1,2,3,4-tetrahydroisoquinoline], for which it took 24 nM to reach half-maximal inhibition in assay [1] (IC50). Moreover, the 2-AG accumulation, % of vehicle control at 1 µM at MGL turned out to be 751%.

In assay [1], `O=C(c1ccc2c(c1)Sc1ccccc1O2)N1CC(N2CCN(C(=O)c3nccs3)CC2)C1` [Cpd 886] came in with an IC50 below 5 nM. Also, the 2-AG accumulation, % of vehicle control at 1 µM on MGL is 823%.

In assay [1], `O=C(c1ccccc1)N1CCN(C2CN(C(=O)c3ccc(OCc4cccc(Cl)c4Cl)cc3)C2)CC1` [Cpd 381, 1-[1-({4-[(2,3-Dichlorobenzyl)oxy]phenyl}carbonyl)azetidin-3-yl]-4-(phenylcarbonyl)piperazine] displayed an IC50 below 5 nM. Moreover, the 2-AG accumulation, % of vehicle control at 10 µM on MGL turned out to be 520%.

For the compound `O=C(c1ccc(Oc2cccc(C(F)(F)F)c2)nc1)N1CC(N2CCN(C(=O)c3cscn3)CC2)C1` [Cpd 689], 45 nM corresponded to half-maximal inhibition in assay [1] (IC50). Besides, the 2-AG accumulation, % of vehicle control at 1 µM on MGL turned out to be 136%.

Take `O=C(c1ccc(-c2ccc(Cl)c(C(F)(F)F)c2)cc1)N1CC(N2CCN(C(=O)c3nccs3)CC2)C1` [Cpd 212, 1-(1-{[4′-Chloro-3′-(trifluoromethyl)biphenyl-4-yl]carbonyl}azetidin-3-yl)-4-(1,3-thiazol-2-ylcarbonyl)piperazine]: the IC50 in assay [1] was below 5 nM. For the same compound, the 2-AG accumulation, % of vehicle control at 10 µM on MGL stood at 831%.

In turn, `Cn1cc(-c2ccc(C(F)(F)F)cc2)c2ccc(C(=O)N3CC(N4CCN(C(=O)c5nccs5)CC4)C3)cc21` [Cpd 1347] returned an IC50 in assay [1] below 5 nM. In addition, the 2-AG accumulation, % of vehicle control at 1 µM on MGL turned out to be 741%.

With `O=C(c1cccc(-c2ccccc2C(F)(F)F)c1)N1CC(N2CCN(C(=O)c3nccs3)CC2)C1` [Cpd 148, 1-(1,3-Thiazol-2-ylcarbonyl)-4-(1-{[2′-(trifluoromethyl)biphenyl-3-yl]carbonyl}azetidin-3-yl)piperazine], the IC50 in assay [1] is below 5 nM. For the same compound, the 2-AG accumulation, % of vehicle control at 10 µM at MGL stood at 744%.

The compound `O=C(c1ccccc1)N1CCN(C2CN(C(=O)c3ccc(Oc4cc(C(F)(F)F)ccn4)cc3)C2)CC1` [Cpd 518] returned an IC50 in assay [1] of 1610 nM. For the same compound, the 2-AG accumulation, % of vehicle control at 1 µM at MGL turned out to be 86%.

Turning to `Cc1c(C(=O)N2CC(N3CCN(C(=O)c4nccs4)CC3)C2)nn(-c2ccc(Cl)cc2Cl)c1-c1ccc(Cl)cc1` [Cpd 1103], in assay [1], 13 nM corresponded to half-maximal inhibition (IC50). At MGL, the 2-AG accumulation, % of vehicle control at 1 µM stood at 698%.

Take `O=C(c1ccc(N2CCCCCC2)cc1)N1CC(N2CCN(C(=O)c3nccs3)CC2)C1` [Cpd 888]: the IC50 in assay [1] was below 5 nM. The 2-AG accumulation, % of vehicle control at 1 µM on MGL worked out at 940%.

In assay [1], `Cn1cc(-c2ccc(C(F)(F)F)cc2)c2ccc(C(=O)N3CC(N4CCN(C(=O)c5cscn5)CC4)C3)cc21` [Cpd 1148] yielded an IC50 of 33 nM. Further, on MGL, the 2-AG accumulation, % of vehicle control at 1 µM came to 344%.

Consider `O=C(c1ccc(Cc2ccc(C(F)(F)F)cc2)cc1)N1CC(N2CCN(C(=O)c3cscn3)CC2)C1` [Cpd 999], for which, in assay [1], the IC50 was 8 nM. Also, on MGL, the 2-AG accumulation, % of vehicle control at 1 µM is 458%.

Consider `O=C(c1ccc(S(=O)(=O)c2cccc(Cl)c2)cc1)N1CC(N2CCN(C(=O)c3nccs3)CC2)C1` [Cpd 876], for which the IC50 in assay [1] was below 5 nM. The 2-AG accumulation, % of vehicle control at 1 µM at MGL was determined as 363%.

In assay [1], `O=C(c1ccc2c(c1)CCN(Cc1ccc(C(F)(F)F)cc1)C2)N1CC(N2CCN(C(=O)c3nccs3)CC2)C1` [Cpd 880] had an IC50 below 5 nM. For the same compound, the 2-AG accumulation, % of vehicle control at 1 µM on MGL turned out to be 945%.

For `O=C(c1ccc2c(ccn2-c2ccc(F)cc2F)c1)N1CC(N2CCN(C(=O)c3ccc[nH]3)CC2)C1` [Cpd 1061, 1-(2,4-Difluorophenyl)-5-({3-[4-(1H-pyrrol-2-ylcarbonyl)piperazin-1-yl]azetidin-1-yl}carbonyl)-1H-indole], the IC50 in assay [1] is 6 nM. Also, at MGL, the 2-AG accumulation, % of vehicle control at 1 µM amounted to 618%.

In assay [1], `CS(=O)(=O)c1cccc(-c2ccc(C(=O)N3CC(N4CCN(C(=O)c5nccs5)CC4)C3)cc2)c1` [Cpd 208, 1-(1-{[3′-(Methylsulfonyl)biphenyl-4-yl]carbonyl}azetidin-3-yl)-4-(1,3-thiazol-2-ylcarbonyl)piperazine] returned a half-inhibitory concentration (IC50) of 92 nM. Besides, at MGL, the 2-AG accumulation, % of vehicle control at 1 µM turned out to be 480% and the 2-AG accumulation, % of vehicle control at 10 µM stood at 324%.

For the compound `O=C(c1cc(-c2ccccc2)n(-c2ccccc2)n1)N1CC(N2CCN(C(=O)c3nccs3)CC2)C1` [Cpd 1164], half-maximal inhibition in assay [1] (IC50) was put at 48 nM. Further, on MGL, the 2-AG accumulation, % of vehicle control at 1 µM was 250%.

For the compound `Cn1cc(-c2ccccc2)c2ccc(C(=O)N3CC(N4CCN(C(=O)c5cscn5)CC4)C3)cc21` [Cpd 1155], it took 41 nM to reach half-maximal inhibition in assay [1] (IC50). In addition, on MGL, the 2-AG accumulation, % of vehicle control at 1 µM stood at 617%.

In assay [1], `O=C(c1ccc(-c2ccc(F)c(Cl)c2)cc1)N1CC(N2CCN(C(=O)c3cscn3)CC2)C1` [Cpd 227, 1-{1-[(3′-Chloro-4′-fluorobiphenyl-4-yl)carbonyl]azetidin-3-yl}-4-(1,3-thiazol-4-ylcarbonyl)piperazine] displayed an IC50 of 7 nM. The 2-AG accumulation, % of vehicle control at 10 µM at MGL was 938%.

On to `O=C(c1ccc(-c2ccc(Cl)c(Cl)c2)cc1)N1CC(N2CCN(C(=O)c3cscn3)CC2)C1` [Cpd 228, 1-{1-[(3′,4′-Dichlorobiphenyl-4-yl)carbonyl]azetidin-3-yl}-4-(1,3-thiazol-4-ylcarbonyl)piperazine], for which the IC50 in assay [1] was below 5 nM. The 2-AG accumulation, % of vehicle control at 10 µM at MGL turned out to be 710%.
